Assay results as given in ChEMBL document CHEMBL1275575, “Susceptibility of Mycobacterium bovis BCG vaccine strains to antituberculous antibiotics” (Antimicrob Agents Chemother, 2009).
≈ marks a conversion by molar mass, not a printed value.

Legend:
Assay type in all cases: functional
[1] = system: Mycobacterium tuberculosis variant bovis; assay: Antibacterial activity against Mycobacterium bovis BCG-Connaught
[2] = system: Mycobacterium tuberculosis variant bovis; assay: Antibacterial activity against Mycobacterium bovis BCG-Pasteur
[3] = system: Mycobacterium tuberculosis variant bovis; assay: Antibacterial activity against Mycobacterium bovis BCG-Denmark
[4] = system: Mycobacterium tuberculosis variant bovis; assay: Antibacterial activity against Mycobacterium bovis BCG-Glaxo
[5] = system: Mycobacterium tuberculosis variant bovis; assay: Antibacterial activity against Mycobacterium bovis BCG-Moreau
[6] = system: Mycobacterium tuberculosis variant bovis; assay: Antibacterial activity against Mycobacterium bovis BCG-japan
[7] = system: Mycobacterium tuberculosis variant bovis; assay: Antibacterial activity against Mycobacterium bovis BCG-Russia
[8] = system: Mycobacterium tuberculosis variant bovis; assay: Antibacterial activity against Mycobacterium bovis BCG-Connaught by Wayne's indirect method

SMILES	MIC [1]	MIC [2]	MIC [3]	MIC [4]	MIC [5]	MIC [6]	MIC [7]	MIC [8]
NCC[C@H](O)C(=O)N[C@@H]1C[C@H](N)[C@@H](O[C@H]2O[C@H](CN)[C@@H](O)[C@H](O)[C@H]2O)[C@H](O)[C@H]1O[C@H]1O[C@H](CO)[C@@H](O)[C@H](N)[C@H]1O [AMIKACIN]	0.125 µg/mL (≈ 0.213 µM)							
CC[C@H]1OC(=O)[C@H](C)[C@@H](O[C@H]2C[C@@](C)(OC)[C@@H](O)[C@H](C)O2)[C@H](C)[C@@H](O[C@@H]2O[C@H](C)C[C@H](N(C)C)[C@H]2O)[C@](C)(O)C[C@@H](C)CN(C)[C@H](C)[C@@H](O)[C@]1(C)O [AZITHROMYCIN]	16 µg/mL (≈ 21.4 µM)	1 µg/mL (≈ 1.34 µM)						
O=C(O)c1cn(C2CC2)c2cc(N3CCNCC3)c(F)cc2c1=O [CIPROFLOXACIN]	0.125 µg/mL (≈ 0.377 µM)							
CC[C@H]1OC(=O)[C@H](C)[C@@H](O[C@H]2C[C@@](C)(OC)[C@@H](O)[C@H](C)O2)[C@H](C)[C@@H](O[C@@H]2O[C@H](C)C[C@H](N(C)C)[C@H]2O)[C@](C)(OC)C[C@@H](C)C(=O)[C@H](C)[C@@H](O)[C@]1(C)O [CLARITHROMYCIN]	0.25 µg/mL (≈ 0.334 µM)	0.3 µg/mL (≈ 0.401 µM)	0.07 µg/mL (≈ 0.0936 µM)	0.15 µg/mL (≈ 0.201 µM)	2 µg/mL (≈ 2.67 µM)			
CC[C@H]1OC(=O)[C@H](C)[C@@H](O[C@H]2C[C@@](C)(OC)[C@@H](O)[C@H](C)O2)[C@H](C)[C@@H](O[C@@H]2O[C@H](C)C[C@H](N(C)C)[C@H]2O)[C@](C)(O)C[C@@H](C)C(=O)[C@H](C)[C@@H](O)[C@]1(C)O [ERYTHROMYCIN]	16 µg/mL (≈ 21.8 µM)	4 µg/mL (≈ 5.45 µM)			128 µg/mL (≈ 174 µM)			
CC[C@@H](CO)NCCN[C@@H](CC)CO [ETHAMBUTOL]	2 µg/mL (≈ 9.79 µM)		2.5 µg/mL (≈ 12.2 µM)	2.5 µg/mL (≈ 12.2 µM)		2 µg/mL (≈ 9.79 µM)		
CCc1cc(C(N)=S)ccn1 [ETHIONAMIDE]	4 µg/mL (≈ 24.1 µM)							
NNC(=O)c1ccncc1 [ISONIAZID]	0.125 µg/mL (≈ 0.911 µM)	0.1 µg/mL (≈ 0.729 µM)	0.4 µg/mL (≈ 2.92 µM)			0.06 µg/mL (≈ 0.438 µM)		
NC[C@H]1O[C@H](O[C@H]2[C@H](O)[C@@H](O[C@H]3O[C@H](CO)[C@@H](O)[C@H](N)[C@H]3O)[C@H](N)C[C@@H]2N)[C@H](O)[C@@H](O)[C@@H]1O [KANAMYCIN]	1 µg/mL (≈ 2.06 µM)							
CC1COc2c(N3CCN(C)CC3)c(F)cc3c(=O)c(C(=O)O)cn1c23 (stereo unspecified) [OFLOXACIN]	< 0.031 µg/mL	0.75 µg/mL (≈ 2.08 µM)	0.75 µg/mL (≈ 2.08 µM)				1 µg/mL (≈ 2.77 µM)	
NC(=O)c1cnccn1 [PYRAZINAMIDE]								> 800 µg/mL
CO[C@H]1/C=C/O[C@@]2(C)Oc3c(C)c(O)c4c(c3C2=O)C2=NC3(CCN(CC(C)C)CC3)NC2=C(NC(=O)/C(C)=C\C=C\[C@H](C)[C@H](O)[C@@H](C)[C@@H](O)[C@@H](C)[C@H](OC(C)=O)[C@@H]1C)C4=O [RIFABUTIN]	0.063 µg/mL (≈ 0.0744 µM)	0.063 µg/mL (≈ 0.0744 µM)	0.016 µg/mL (≈ 0.0189 µM)	0.016 µg/mL (≈ 0.0189 µM)		0.063 µg/mL (≈ 0.0744 µM)		
CO[C@H]1/C=C/O[C@@]2(C)Oc3c(C)c(O)c4c(O)c(c(/C=N/N5CCN(C)CC5)c(O)c4c3C2=O)NC(=O)/C(C)=C\C=C\[C@H](C)[C@H](O)[C@@H](C)[C@@H](O)[C@@H](C)[C@H](OC(C)=O)[C@@H]1C [RIFAMPIN]	< 0.031 µg/mL	0.063 µg/mL (≈ 0.0766 µM)	0.016 µg/mL (≈ 0.0194 µM)	0.031 µg/mL (≈ 0.0377 µM)		0.063 µg/mL (≈ 0.0766 µM)		
CN[C@@H]1[C@H](O[C@H]2[C@H](O[C@H]3[C@H](O)[C@@H](O)[C@H](N=C(N)N)[C@@H](O)[C@@H]3N=C(N)N)O[C@@H](C)[C@]2(O)C=O)O[C@@H](CO)[C@H](O)[C@H]1O [STREPTOMYCIN]	0.25 µg/mL (≈ 0.43 µM)		2 µg/mL (≈ 3.44 µM)	2 µg/mL (≈ 3.44 µM)		0.25 µg/mL (≈ 0.43 µM)		
